In US9579314B2 (priority 2015, dated 2017):

Experiments:
Human M3 receptor = Human M3 receptor (Homo sapiens, UniProt P20309); details: read-out: M3 binding affinity
Human β2 adrenoceptor = Human β2 adrenoceptor (Homo sapiens, UniProt P07550); details: read-out: B2 binding affinity
Chain of Human β2 adrenoceptor (P07550 whole entry): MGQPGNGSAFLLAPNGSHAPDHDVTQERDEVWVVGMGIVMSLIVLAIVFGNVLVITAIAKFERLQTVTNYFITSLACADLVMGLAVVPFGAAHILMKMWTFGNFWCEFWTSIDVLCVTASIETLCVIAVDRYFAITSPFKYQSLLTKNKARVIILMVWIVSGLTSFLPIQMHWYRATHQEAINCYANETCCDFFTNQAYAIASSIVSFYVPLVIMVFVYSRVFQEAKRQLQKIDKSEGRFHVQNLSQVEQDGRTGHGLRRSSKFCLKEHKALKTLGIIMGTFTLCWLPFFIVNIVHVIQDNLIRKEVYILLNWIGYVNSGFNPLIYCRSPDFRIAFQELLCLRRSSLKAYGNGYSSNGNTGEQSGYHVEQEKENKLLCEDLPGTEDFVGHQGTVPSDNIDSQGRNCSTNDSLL

Chain of Human M3 receptor (P20309 whole entry): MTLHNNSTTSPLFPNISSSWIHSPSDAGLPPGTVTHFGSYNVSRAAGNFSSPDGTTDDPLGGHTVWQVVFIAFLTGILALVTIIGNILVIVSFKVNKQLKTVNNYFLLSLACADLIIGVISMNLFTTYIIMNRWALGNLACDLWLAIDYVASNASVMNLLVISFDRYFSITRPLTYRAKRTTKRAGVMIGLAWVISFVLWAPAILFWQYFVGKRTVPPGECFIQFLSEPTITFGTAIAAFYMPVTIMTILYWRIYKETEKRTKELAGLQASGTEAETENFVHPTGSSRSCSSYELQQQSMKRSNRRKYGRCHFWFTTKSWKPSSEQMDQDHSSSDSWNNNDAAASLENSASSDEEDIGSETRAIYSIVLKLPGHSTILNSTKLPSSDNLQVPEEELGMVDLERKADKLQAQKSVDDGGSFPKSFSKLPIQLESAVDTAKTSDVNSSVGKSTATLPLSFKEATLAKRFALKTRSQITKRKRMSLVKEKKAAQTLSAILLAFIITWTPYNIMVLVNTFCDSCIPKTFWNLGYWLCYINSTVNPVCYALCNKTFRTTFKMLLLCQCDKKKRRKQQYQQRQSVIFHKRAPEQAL

SMILES	IC50 (Human M3 receptor) [nM]	IC50 (Human β2 adrenoceptor) [nM]
O=C(OCC1CCN(Cc2ccccc2)CC1)C(O)(c1cccc(OCCCCCNC[C@H](O)c2ccc(O)c3[nH]c(=O)ccc23)c1)C1CCCCC1 (stereo partly drawn) [Compound 10, (1-benzylpiperidin-4-yl)methyl 2-cyclohexyl-2-hydroxy-2-(3-((5-(((R)-2-hydroxy-2-(8-hydroxy-2-oxo-1,2-dihydroquinolin-5-yl)ethyl)amino)pentyl)oxy)phenyl)acetate]	0.3 to 3	0.3 to 3
CCc1cccc(C(O)(C(=O)OCC2CCN(Cc3ccccc3)CC2)c2cccc(OCCCCCNC[C@H](O)c3ccc(O)c4[nH]c(=O)ccc34)c2)c1 (stereo partly drawn) [Compound 11, (1-benzylpiperidin-4-yl)methyl 2-(3-ethylphenyl)-2-hydroxy-2-(3-((5-(((R)-2-hydroxy-2-(8-hydroxy-2-oxo-1,2-dihydroquinolin-5-yl)ethyl)amino)pentyl)oxy)phenyl)acetate]	< 0.3	< 0.3
O=C(OCC1CCN(Cc2ccccc2)CC1)[C@](O)(c1ccccc1)c1cccc(OCCCCCNC[C@H](O)c2ccc(O)c3[nH]c(=O)ccc23)c1 [Compound 13, (S)-(1-Benzylpiperidin-4-yl)methyl 2-hydroxy-2-(3-((5-(((R)-2-hydroxy-2-(8-hydroxy-2-oxo-1,2-dihydroquinolin-5-yl)ethyl)amino)pentyl)oxy)phenyl)-2-phenylacetate]	< 0.3	< 0.3
O=C(OCC1CCN(Cc2ccccc2)CC1)[C@@](O)(c1ccccc1)c1cccc(OCCCCCNC[C@H](O)c2ccc(O)c3[nH]c(=O)ccc23)c1 [Compound 14, (R)-(1-benzylpiperidin-4-yl)methyl 2-hydroxy-2-(3-((5-(((R)-2-hydroxy-2-(8-hydroxy-2-oxo-1,2-dihydroquinolin-5-yl)ethyl)amino)pentyl)oxy)phenyl)-2-phenylacetate]	> 3	< 0.3
CN1CCC(COC(=O)[C@](O)(c2ccccc2)c2cccc(OCCCCCNC[C@H](O)c3ccc(O)c4[nH]c(=O)ccc34)c2)CC1 [Compound 23, (S)-(1-methylpiperidin-4-yl)methyl 2-hydroxy-2-(3-((5-(((R)-2-hydroxy-2-(8-hydroxy-2-oxo-1,2-dihydroquinolin-5-yl)ethyl)amino)pentyl)oxy)phenyl)-2-phenylacetate]	0.3 to 3	0.3 to 3
CN1CCC(COC(=O)[C@@](O)(c2ccccc2)c2cccc(OCCCCCNC[C@H](O)c3ccc(O)c4[nH]c(=O)ccc34)c2)CC1 [Compound 24, (R)-(1-methylpiperidin-4-yl)methyl 2-hydroxy-2-(3-((5-(((R)-2-hydroxy-2-(8-hydroxy-2-oxo-1,2-dihydroquinolin-5-yl)ethyl)amino)pentyl)oxy)phenyl)-2-phenylacetate]	> 3	< 0.3
O=C(OCC1CCN(Cc2ccccc2)CC1)[C@](O)(c1ccccc1)c1cccc(OCCCCCCCNC[C@H](O)c2ccc(O)c3[nH]c(=O)ccc23)c1 [Compound 28, (S)-(1-benzylpiperidin-4-yl)methyl 2-hydroxy-2-(3-((7-(((R)-2-hydroxy-2-(8-hydroxy-2-oxo-1,2-dihydroquinolin-5-yl)ethyl)amino)heptyl)oxy)phenyl)-2-phenylacetate]	0.3 to 3	0.3 to 3
O=C(c1ccc(CCNC[C@H](O)c2ccc(O)c3[nH]c(=O)ccc23)cc1)N1CCC(COc2cccc([C@](O)(C(=O)OCC3CCN(Cc4ccccc4)CC3)c3ccccc3)c2)CC1 [Compound 31, (S)-(1-Benzylpiperidin-4-yl)methyl 2-hydroxy-2-(3-((1-(4-(2-(((R)-2-hydroxy-2-(8-hydroxy-2-oxo-1,2-dihydroquinolin-5-yl)ethyl)amino)ethyl)benzoyl)piperidin-4-yl)methoxy)phenyl)-2-phenylacetate]	< 0.3	< 0.3
O=C(NCCCOc1cccc([C@](O)(C(=O)OCC2CCN(Cc3ccccc3)CC2)c2ccccc2)c1)c1ccc(CNC[C@H](O)c2ccc(O)c3[nH]c(=O)ccc23)cc1 [Compound 32, (S)-(1-benzylpiperidin-4-yl)methyl 2-hydroxy-2-(3-(3-(4-((((R)-2-hydroxy-2-(8-hydroxy-2-oxo-1,2-dihydroquinolin-5-yl)ethyl)amino)methyl)benzamido)propoxy)phenyl)-2-phenylacetate]	0.3 to 3	< 0.3
COc1cc(C(=O)NCCCOc2cccc([C@](O)(C(=O)OCC3CCN(Cc4ccccc4)CC3)c3ccccc3)c2)ccc1CNC[C@H](O)c1ccc(O)c2[nH]c(=O)ccc12 [Compound 32A, (S)-(1-benzylpiperidin-4-yl)methyl 2-hydroxy-2-(3-(3-(4-((((R)-2-hydroxy-2-(8-hydroxy-2-oxo-1,2-dihydroquinolin-5-yl)ethyl)amino)methyl)-3-methoxybenzamido)propoxy)phenyl)-2-phenylacetate]	0.3 to 3	< 0.3
COc1cc(CNC[C@H](O)c2ccc(O)c3[nH]c(=O)ccc23)ccc1C(=O)NCCCOc1cccc([C@](O)(C(=O)OCC2CCN(Cc3ccccc3)CC2)c2ccccc2)c1 [Compound 32B, (S)-(1-benzylpiperidin-4-yl)methyl 2-hydroxy-2-(3-(3-(4-((((R)-2-hydroxy-2-(8-hydroxy-2-oxo-1,2-dihydroquinolin-5-yl)ethyl)amino)methyl)-2-methoxybenzamido)propoxy)phenyl)-2-phenylacetate]	< 0.3	< 0.3
O=C(NCCCOc1cccc([C@](O)(C(=O)OCC2CCN(Cc3ccccc3)CC2)c2ccccc2)c1)c1ccc(CNC[C@H](O)c2ccc(O)c3[nH]c(=O)ccc23)nc1 [Compound 32C, (S)-(1-benzylpiperidin-4-yl)methyl 2-hydroxy-2-(3-(3-(6-((((R)-2-hydroxy-2-(8-hydroxy-2-oxo-1,2-dihydroquinolin-5-yl)ethyl)amino)methyl)nicotinamido)propoxy)phenyl)-2-phenylacetate]	0.3 to 3	< 0.3
CCOc1cc(C(=O)NCCCOc2cccc([C@](O)(C(=O)OCC3CCN(Cc4ccccc4)CC3)c3ccccc3)c2)ccc1CNC[C@H](O)c1ccc(O)c2[nH]c(=O)ccc12 [Compound 32D, (S)-(1-benzylpiperidin-4-yl)methyl 2-(3-(3-(3-ethoxy-4-((((R)-2-hydroxy-2-(8-hydroxy-2-oxo-1,2-dihydroquinolin-5-yl)ethyl)amino)methyl)benzamido)propoxy)phenyl)-2-hydroxy-2-phenylacetate]	0.3 to 3	< 0.3
O=C(NCCCOc1cccc([C@](O)(C(=O)OCC2CCN(Cc3ccccc3)CC2)c2ccccc2)c1)c1ccc(CNC[C@H](O)c2ccc(O)c3[nH]c(=O)ccc23)c(OC(F)(F)F)c1 [Compound 32E, (S)-(1-benzylpiperidin-4-yl)methyl 2-hydroxy-2-(3-(3-(4-((((R)-2-hydroxy-2-(8-hydroxy-2-oxo-1,2-dihydroquinolin-5-yl)ethyl)amino)methyl)-3-(trifluoromethoxy)benzamido)propoxy)phenyl)-2-phenylacetate]	0.3 to 3	0.3 to 3
COc1c(CNC[C@H](O)c2ccc(O)c3[nH]c(=O)ccc23)ccc(C(=O)NCCCOc2cccc([C@](O)(C(=O)OCC3CCN(Cc4ccccc4)CC3)c3ccccc3)c2)c1F [Compound 32F, (S)-(1-benzylpiperidin-4-yl)methyl 2-(3-(3-(2-fluoro-4-((((R)-2-hydroxy-2-(8-hydroxy-2-oxo-1,2-dihydroquinolin-5-yl)ethyl)amino)methyl)-3-methoxybenzamido)propoxy)phenyl)-2-hydroxy-2-phenylacetate]	0.3 to 3	< 0.3
